Measured values from patent US12673947B2 (Cytosinlab Therapeutics Co., Ltd., priority 2020, dated 2026).
Where two headings read alike, the source gives them in different places.

Legend:
MV4;11 cells = assay: MV4;11 in vitro inhibition of proliferation assay (CellTiter-Glo, 72 hours); assay type: cell-based; conditions: IC50 class, read-out: Inhibitory activity of cell proliferation MV4;11
Source text: Biological Test Example 2: MV4;11 In Vitro Inhibition of Proliferation Assay
The MV4;11 cell lines were purchased from the cell bank of the Chinese Academy of Sciences, IMDM medium (Gibco, catalog number 12440), fetal bovine serum (Gibco, catalog number 10099141C), penicillin-streptomycin antibiotics (Gibco, catalog number 15140122), DMSO (Sigma, catalog number D2650), Celltiter-Glo kit (CTG) (Promega, catalog number G7573), 384-well clear flat-bottom black cell culture plate (Corning, catalog number 3764), D300e digital dispenser (Tecan, catalog number D300e), SpectraMax i3x microplate reader (MOLECULAR DEVICES, catalog number i3x)
MV4;11 cell was cultivated in IMDM, 10% fetal bovine serum, 1% penicillin-streptomycin antibiotics, and cell density was kept less than 1.0*10E6 cells per ml to ensure that it was always in logarithmic growth phase. Cell viability was greater than 95%.
The compounds to be tested was diluted by 3 times from 10 uM with DMSO to 9 concentrations. 60 nl diluted compound was added to the cell culture plate and three duplicates were set up.
The prepared MV4;11 cell suspension was added to the 384-well plate, and 20 microliters of cell suspension was added per well, i.e., each well contained 2000 MV4;11 cells, of which the final concentration of DMSO was 0.3%. The cell culture plate was placed in 37° C. and incubated in a 5% carbon dioxide incubator for 72 hours.
20 μL of Promega CellTiter-Glo reagent was added to per well, and the plate was incubated at room temperature for 10 minutes when the luminescence signals were stable. SpectraMax i3x microplate reader was used to read signals.
The original data was converted into inhibition rate, and the IC50 value (half inhibition concentration) of the compound was determined by fitting the nonlinear four-parameter curve.

FLT3 = molecular target: T1, FLT3 (Homo sapiens, UniProt P36888); assay: FLT3 kinase in vitro inhibitory activity experiment (Caliper mobility shift, conversion rate); assay type: biochemical; conditions: IC50 class, read-out: Enzyme activity FLT3
T1 construct: purchased Carna 08-145
T1 sequence (P36888 27-993): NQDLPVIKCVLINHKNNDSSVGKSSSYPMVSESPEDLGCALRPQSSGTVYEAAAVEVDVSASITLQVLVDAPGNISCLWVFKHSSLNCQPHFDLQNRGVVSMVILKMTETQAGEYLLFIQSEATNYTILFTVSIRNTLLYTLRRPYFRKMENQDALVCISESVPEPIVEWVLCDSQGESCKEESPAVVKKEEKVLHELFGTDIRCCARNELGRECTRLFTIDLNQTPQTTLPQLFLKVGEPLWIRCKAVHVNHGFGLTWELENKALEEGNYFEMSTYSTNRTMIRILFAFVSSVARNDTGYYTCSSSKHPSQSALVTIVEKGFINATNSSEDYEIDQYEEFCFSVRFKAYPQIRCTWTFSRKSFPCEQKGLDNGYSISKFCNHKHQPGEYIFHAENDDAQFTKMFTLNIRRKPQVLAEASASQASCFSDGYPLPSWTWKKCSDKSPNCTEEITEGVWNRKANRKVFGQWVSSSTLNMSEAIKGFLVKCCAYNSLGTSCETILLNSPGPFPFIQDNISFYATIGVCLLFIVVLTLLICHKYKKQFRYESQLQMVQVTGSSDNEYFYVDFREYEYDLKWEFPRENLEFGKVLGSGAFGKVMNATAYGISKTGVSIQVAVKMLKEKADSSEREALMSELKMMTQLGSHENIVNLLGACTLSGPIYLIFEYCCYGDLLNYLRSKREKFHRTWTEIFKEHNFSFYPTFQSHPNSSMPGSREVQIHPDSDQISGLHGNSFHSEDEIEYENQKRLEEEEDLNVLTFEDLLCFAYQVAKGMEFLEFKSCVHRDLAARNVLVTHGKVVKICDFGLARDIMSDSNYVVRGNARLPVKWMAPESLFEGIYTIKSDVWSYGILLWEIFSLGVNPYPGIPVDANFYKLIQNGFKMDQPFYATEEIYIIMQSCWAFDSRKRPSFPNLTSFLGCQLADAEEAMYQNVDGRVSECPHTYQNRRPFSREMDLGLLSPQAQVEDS
Protocol: Biological Test Example 1: FLT3 Kinase In Vitro Inhibitory Activity Experiment
Centrifuge (manufacturer: Eppendorf, model: 5430), microplate reader (manufacturer: Perkin Elmer, model: Caliper EZ Reader II), Echo 550 (manufacturer: Labcyte, model: Echo 550)
1. Kinase Reaction Process
• (1) 1×Kinase buffer was prepared. • (2) Preparation of the serial compound dilutions: the initial stock (the concentration of the tested compound was 1 μM) was diluted by 3-fold into 10 concentrations, and was single-well detected. The compounds were series diluted to solutions of 10 different concentration (100-folds final concentration) in 384-well plates. 250 nl of solution was transferred to each well of 384-well plate by Echo550. 100% DMSO (250 nl) was added to negative control wells and positive control wells respectively. • (3) Kinase solution (2.5 times final concentration) was prepared with 1×Kinase buffer. • (4) 10 μL of kinase solution (2.5 times final concentration) was added to compound wells and positive control wells respectively: 1×Kinase buffer (10 μL) was added to the negative control wells. • (5) The solution was centrifuged at 1000 rpm for 30 seconds, shaked and mixed, and incubated at room temperature for 10 minutes. • (6) The mixed solution of ATP and Kinase substrate 2 (25/15 times final concentration) was prepared with 1×Kinase buffer. • (7) 15 μL of mixed solution ATP and Kinase substrate 2 (25/15 times final concentration) was added to initiated the reaction. • (8) 384 well plate was centrifuged at 1000 rpm for 30 seconds, shaked and mixed, then incubated at room temperature for 30 minutes. • (9) Stop solution (30 μL) was added to stop kinase reaction, and the solution was centrifuged at 1000 rpm for 30 seconds, shaked and mixed. • (10) The conversion rate was read with Caliper EZ Reader II. 2. Data Analysis Formula for Calculation
Wherein: Conversion %_sample is the reading of the sample conversion; Conversion %_min: negative control well.

Row | Compound | IC50 (MV4;11 cells) [nM] | IC50 (FLT3) [nM] | IC50 (MV4;11 cells; Homo sapiens, MV4-11, 72 h) [nM]
1 | CCc1nc2c(N)ncc(-c3cnn(C4C[C@H]5CC[C@@H](C4)N5)c3)c2nc1N[C@@H]1CC[C@H](O)C1 (single isomer, unassigned) [Compound 162] | 100 to 500 | ≤ 10 | –
2 | CCc1nc2c(N)ncc(-c3cnn(C4C[C@H]5CC[C@@H](C4)N5)c3)c2nc1N[C@@H]1CC[C@H](O)C1 (single isomer, unassigned) [Compound 163] | 10 to 100 | ≤ 10 | –
3 | CCc1nc2c(N)ncc(-c3cnn(C4C[C@H]5CC[C@@H](C4)N5C)c3)c2nc1N[C@@H]1CC[C@H](O)C1 (single isomer, unassigned) [Compound 164] | – | ≤ 10 | 10 to 100
4 | CCc1nc2c(N)ncc(-c3cnn(C4C[C@H]5CC[C@@H](C4)N5C)c3)c2nc1N[C@@H]1CC[C@H](O)C1 (single isomer, unassigned) [Compound 165] | ≤ 10 | ≤ 10 | –
5 | CCc1nc2c(N)ncc(-c3cnn(C4CCC(C)(O)CC4)c3)c2nc1N[C@@H]1CC[C@H](O)C1 (single isomer, unassigned) [Compound 284] | – | ≤ 10 | ≤ 10
6 | CCc1nc2c(N)ncc(-c3cnn(C4CCC(C)(O)CC4)c3)c2nc1N[C@@H]1CC[C@H](O)C1 (single isomer, unassigned) [Compound 285] | ≤ 10 | ≤ 10 | –
7 | CCc1nc2c(N)nccc2nc1NC1CCOCC1 [Compound 1] | – | > 500 | > 500
8 | CCc1nc2c(N)ncc(Br)c2nc1NC1CCOCC1 [Compound 2, 8-Bromo-3-ethyl-N2-(tetrahydro-2H-pyran-4-yl)pyridino[3,4-b]pyrazine-2,5-diamine] | – | 100 to 500 | > 500
9 | CCc1nc2c(N)ncc(-c3ccc(N4CCC(N5CCN(C)CC5)CC4)c(S(C)(=O)=O)c3)c2nc1NC1CCOCC1 [Compound 18, 3-ethyl-8-(4-(4-(4-methylpiperazine-1-yl)piperidine-1-yl)-3-(methylsulfyl)phenyl)-N2-(tetrahydro-2H-pyran-4-yl) pyridino [3,4-b] pyrazine-2,5-diamine] | – | 10 to 100 | –
10 | CCc1nc2c(N)ncc(-c3ccc(N4CCC(N5CCN(C)CC5)CC4)c(C(C)(C)O)c3)c2nc1NC1CCOCC1 [Compound 19, 2-(5-(5-amino-3-ethyl-2-((tetrahydro-2H-pyran-4-yl)amino)pyridino[3,4-b]pyrazine-8-yl)-2-(4-(4-methylpiperazine-1-yl)piperidine-1-yl)phenyl)propan-2-ol] | – | ≤ 10 | –
11 | COc1cc(-c2cnc(N)c3ncc(NC4CCOCC4)nc23)ccc1N1CCC(N2CCN(C)CC2)CC1 [Compound 25] | – | 10 to 100 | –
12 | CCc1nc2c(N)ncc(-c3ccn(C)c3)c2nc1NC1CCOCC1 [Compound 56] | – | 10 to 100 | –
13 | CCc1nc2c(N)ncc(-c3cnn(C)c3)c2nc1NC1CCOCC1 [Compound 57] | – | 10 to 100 | –
14 | CCc1nc2c(N)ncc(-c3ccc4c(c3)OCCN4C)c2nc1NC1CCOCC1 [Compound 61] | – | 10 to 100 | –
15 | CCc1nc2c(N)ncc(-c3ccc(N4CCC(N5CCN(C)CC5)CC4)c(OC)c3)c2nc1NC [Compound 76] | – | 10 to 100 | –
16 | CCc1nc2c(N)ncc(-c3ccc(N4CCC(N5CCN(C)CC5)CC4)c(OC)c3)c2nc1NC1CCC(O)CC1 (stereo not drawn) [Compound 82] | – | – | 10 to 100
17 | CCc1nc2c(N)ncc(-c3ccc(N4CCC(N5CCN(C)CC5)CC4)c(OC)c3)c2nc1N[C@H]1CC[C@@H](O)CC1 [Compound 82] | – | ≤ 10 | –

Row | Compound | IC50 (MV4;11 cells) [nM] | IC50 (FLT3) [nM] | IC50 (MV4;11 cells; Homo sapiens, MV4-11, 72 h) [nM]
18 | CCc1nc2c(N)ncc(-c3cnn(CC4CCN(C)CC4)c3)c2nc1NC1CCOCC1 [Compound 137] | – | ≤ 10 | –
19 | CCc1nc2c(N)ncc(Br)c2nc1N[C@@H]1CC[C@H](O)C1 [Compound 151, (1S, 3R)-3-((5-amino-8-bromo-3-ethylpyridino[3,4-b]pyrazine-2-yl)amino)cyclopentan-1-ol] | – | 100 to 500 | –
20 | CCc1nc2c(N)ncc(-c3cnn(CC4CCNCC4)c3)c2nc1NC1CCOCC1 [Compound 154] | – | ≤ 10 | –
21 | CCc1nc2c(N)ncc(-c3cnn(C4CCN(c5cc(F)cc(F)c5)CC4)c3)c2nc1N[C@@H]1CC[C@H](O)C1 [Compound 173] | – | ≤ 10 | –
22 | CCc1nc2c(N)ncc(-c3cnn(C4CCOCC4)c3)c2nc1N[C@@H]1CC[C@H](O)C1 [Compound 191] | – | – | ≤ 10
23 | CCc1nc2c(N)ncc(-c3cnn(C4CCN(CCO)CC4)c3)c2nc1N[C@H]1CCOC1 [Compound 229] | – | ≤ 10 | –
24 | CCc1nc2c(N)ncc(-c3cnn(C(C)C)c3)c2nc1N[C@H]1CCOC1 [Compound 230] | – | ≤ 10 | –
25 | CCc1nc2c(N)ncc(-c3cnn(C4COC4)c3)c2nc1N[C@H]1CCOC1 [Compound 231] | – | ≤ 10 | –
26 | CCc1nc2c(N)ncc(-c3cnn(C4CCN(C5CCN(C)CC5)CC4)c3)c2nc1N[C@@H]1CCOC1 [Compound 250] | – | ≤ 10 | –
27 | CCc1nc2c(N)ncc(-c3ccc(N4CCC(N5CCN(C)CC5)CC4)c(OC)c3)c2nc1N[C@H]1CCC[C@@H](O)C1 [Compound 255] | – | ≤ 10 | –
28 | CCc1nc2c(N)ncc(-c3ccc(N4CCC(N5CCN(C)CC5)CC4)c(OC)c3)c2nc1N[C@H]1CCC[C@H](O)C1 [Compound 256] | – | ≤ 10 | –
29 | CCc1nc2c(N)ncc(-c3cnn(C4CCNCC4)c3)c2nc1N[C@@H]1CCOC1 [Compound 258] | – | ≤ 10 | –
30 | CCc1nc2c(N)ncc(-c3cnn(C4CCNCC4)c3)c2nc1N[C@H]1CCOC1 [Compound 259, (S)-3-ethyl-8-(1-(piperidin-4-yl)-1H-pyrazol-4-yl)-N2-(tetrahydrofuran-3-yl)pyridino[3,4-b]pyrazin-2,5-diamine] | – | ≤ 10 | –
31 | CCc1nc2c(Nc3cccnc3)ncc(-c3cnn(C4CCNCC4)c3)c2nc1N[C@@H]1CC[C@H](O)C1 [Compound 262] | – | 10 to 100 | –
32 | CCc1nc2c(N)nccc2nc1N[C@@H]1CC[C@H](O)C1 [Compound 263, (1S,3R)-3-((5-amino-3-ethylpyridino[3,4-b]pyrazine-2-yl)amino)cyclopentan-1-ol] | – | > 500 | –
33 | CCc1nc2c(N)ncc(-c3cnn(C4CCN(C)CC4)c3)c2nc1N(C)CC(C)(C)O [Compound 264] | – | ≤ 10 | –
34 | CCc1nc2c(N)ncc(-c3cnn(-c4ccc(C#N)cn4)c3)c2nc1N[C@@H]1CC[C@H](O)C1 [Compound 300] | – | – | ≤ 10
